Experimental data published in paper PMC6299835 (Toxicon : official journal of the International Society on …, 2018).
“Also recorded” adds a separate entry of the source. No end group written: not given here.

Key:
MrgprC11 = biological target: T1, MrgprC11 (Mus musculus, UniProt Q8CIP3); format: cell-based
T1 sequence (Q8CIP3 1-322): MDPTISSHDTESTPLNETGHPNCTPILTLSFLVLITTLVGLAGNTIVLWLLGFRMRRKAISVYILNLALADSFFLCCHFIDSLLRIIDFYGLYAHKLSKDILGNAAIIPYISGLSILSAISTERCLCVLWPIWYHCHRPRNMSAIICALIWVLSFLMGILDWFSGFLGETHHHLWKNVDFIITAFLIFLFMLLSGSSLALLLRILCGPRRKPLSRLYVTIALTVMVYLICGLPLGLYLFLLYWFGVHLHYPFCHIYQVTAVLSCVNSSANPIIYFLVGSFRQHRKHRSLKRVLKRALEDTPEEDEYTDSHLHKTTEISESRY

human MrgprX1 (hMrgprX1) = human MrgprX1 (hMrgprX1) (Homo sapiens, UniProt Q96LB2); assay: cell-based; format: cell-based
[1] = test system: hMrgprX1;Mrgpr-cluster∆−/− transgenic mouse; conditions: in vivo
mice = conditions: mouse, in vivo; cited from earlier work

human MrgprX1 (hMrgprX1), sequence (Q96LB2 whole entry, looked up): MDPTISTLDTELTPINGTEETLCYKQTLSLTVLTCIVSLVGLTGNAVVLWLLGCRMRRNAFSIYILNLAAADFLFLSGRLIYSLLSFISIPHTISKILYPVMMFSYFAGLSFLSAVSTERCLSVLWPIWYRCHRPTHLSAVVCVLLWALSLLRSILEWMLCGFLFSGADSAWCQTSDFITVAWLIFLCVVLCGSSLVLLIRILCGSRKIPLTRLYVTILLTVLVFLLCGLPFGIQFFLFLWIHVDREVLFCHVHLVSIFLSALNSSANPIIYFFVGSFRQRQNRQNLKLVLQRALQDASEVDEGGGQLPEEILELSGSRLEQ

## HSGFLLAWSGPRNRFVRF-NH2 [CNF-Vc1]
MrgprC11
  Activation of MrgprC11: activates
Human MrgprX1 (hMrgprX1)
  Activation of hMrgprX1: activates
  EC50: 1800 nM
[1]
  Itch-related scratching after intradermal cheek injection of peptide: induces significant scratching
mice
  Behaviour of mice after intracranial injection: renders mice unable to move; also recorded: hypoactive behavior
